Values quoted from earlier work as cited in paper PMC2228077, “The bioavailability of oral GI147211 (GG211), a new topoisomerase I inhibitor” (British Journal of Cancer, 1997).
“And” between values parts separate entries of the source, which are not always exact repeats. Equal entries are not always repeated.

Tests used:
[1] = design: method as in Rowinsky et al, 1992; Verweij et al, 1993; conditions: ref Rowinsky et al, 1992; Verweij et al, 1993; cited from earlier work
[2] = design: method as in Kuhn et al, 1995; Schellens et al, 1996; conditions: oral topotecan; ref Kuhn et al, 1995; Schellens et al, 1996; cited from earlier work
[3] = human, in vivo, po; cited from earlier work

Row | Structure (SMILES) | dose-limiting toxicity [1] | bioavailability (variable systemic exposure) [2] | patients who developed CTC grade >= II diarrhoea [3] [%]
1 | CC[C@@]1(O)C(=O)OCc2c1cc1n(c2=O)Cc2cc3c(CN(C)C)c(O)ccc3nc2-1 [topotecan] | cumulative myelosuppression | 32% and 44% | 
2 | CC[C@@]1(O)C(=O)OCc2c1cc1n(c2=O)Cc2cc3c([N+](=O)[O-])cccc3nc2-1 [9-nitro-camptothecin] |  |  | 33
